Source: ChEMBL document CHEMBL6153147 (J Med Chem, 2025)

Key:
[1] = biological target: Cytochrome P450 2B6 (Homo sapiens, UniProt P20813); assay: Inhibition of CYP2B6 in human liver microsomes using bupropion as substrate preincubated with compound followed by substrate addition measured after 10 mins in presence of NADPH by LC-MS/MS analysis; type: ADME, Microsome
[2] = Metabolic stability in dog liver microsomes assessed as intrinsic clearance in microsome measured per mg protein preincubated for 5 mins followed by NADPH addition by LC-MS/MS analysis; type: ADME, Canis lupus familiaris; conditions: read-out: CLH
[3] = test system: KG-1; assay: cells; conditions: Homo sapiens
[4] = Acute hematopoietic toxicity in mouse assessed as effect on biochemical indices at 500 mg/kg, IG qd treated for 7 days; type: organism-based; conditions: in vivo, po, 168 h, time 7 day
[5] = biological target: TRAF2 and NCK-interacting protein kinase (Homo sapiens) (UniProt Q9UKE5); assay: Inhibition of human TNIK assessed as residual activity at 10 uM by kinome selectivity profiling analysis relative to control
Sequence of TRAF2 and NCK-interacting protein kinase (Homo sapiens) (Q9UKE5 whole entry, looked up): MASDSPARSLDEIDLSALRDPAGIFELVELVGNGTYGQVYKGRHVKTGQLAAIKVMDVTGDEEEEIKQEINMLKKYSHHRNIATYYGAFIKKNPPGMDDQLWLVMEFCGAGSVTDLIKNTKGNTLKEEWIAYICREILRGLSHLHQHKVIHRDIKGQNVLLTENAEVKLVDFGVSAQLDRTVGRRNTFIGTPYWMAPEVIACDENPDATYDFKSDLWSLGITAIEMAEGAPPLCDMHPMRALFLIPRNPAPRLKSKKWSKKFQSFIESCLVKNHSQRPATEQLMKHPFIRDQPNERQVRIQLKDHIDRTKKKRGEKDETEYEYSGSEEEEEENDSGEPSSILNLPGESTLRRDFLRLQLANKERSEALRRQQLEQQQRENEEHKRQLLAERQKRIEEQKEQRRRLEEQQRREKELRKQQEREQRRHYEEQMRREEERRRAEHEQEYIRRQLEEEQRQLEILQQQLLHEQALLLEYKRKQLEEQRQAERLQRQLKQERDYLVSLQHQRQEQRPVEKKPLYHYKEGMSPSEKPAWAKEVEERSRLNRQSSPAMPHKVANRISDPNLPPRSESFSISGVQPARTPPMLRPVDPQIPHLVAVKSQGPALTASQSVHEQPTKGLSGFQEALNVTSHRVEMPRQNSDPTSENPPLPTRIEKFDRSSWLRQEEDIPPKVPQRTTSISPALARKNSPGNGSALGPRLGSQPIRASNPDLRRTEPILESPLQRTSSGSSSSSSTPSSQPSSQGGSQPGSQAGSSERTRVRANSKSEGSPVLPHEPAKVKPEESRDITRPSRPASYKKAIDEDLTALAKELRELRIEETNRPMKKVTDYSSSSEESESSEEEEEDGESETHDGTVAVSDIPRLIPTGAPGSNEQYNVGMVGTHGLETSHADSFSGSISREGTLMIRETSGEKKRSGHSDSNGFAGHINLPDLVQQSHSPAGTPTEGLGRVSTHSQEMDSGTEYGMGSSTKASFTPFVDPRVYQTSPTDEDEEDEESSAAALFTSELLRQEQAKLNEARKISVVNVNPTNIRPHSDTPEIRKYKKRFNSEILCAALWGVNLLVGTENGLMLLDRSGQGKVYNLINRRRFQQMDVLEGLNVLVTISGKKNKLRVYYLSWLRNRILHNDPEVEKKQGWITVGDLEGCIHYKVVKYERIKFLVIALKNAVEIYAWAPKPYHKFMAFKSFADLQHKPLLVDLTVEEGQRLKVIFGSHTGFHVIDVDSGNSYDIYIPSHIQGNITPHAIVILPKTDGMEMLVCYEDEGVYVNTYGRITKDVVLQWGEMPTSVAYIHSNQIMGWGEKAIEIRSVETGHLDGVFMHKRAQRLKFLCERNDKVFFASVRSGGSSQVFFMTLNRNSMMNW

[6] = species: Homo sapiens; assay: Inhibition of human ABL assessed as residual activity at 10 uM by kinome selectivity profiling analysis relative to control
[7] = biological target: T1, Serine/threonine-protein kinase PLK3 (Homo sapiens, UniProt Q9H4B4); assay: Inhibition of human PLK3 using ATF2 as substrate incubated for 40 mins in presence of [gamma-33P]ATP/Mg acetate by scintillation counting analysis
Target sequence in this assay (Q9H4B4 whole entry): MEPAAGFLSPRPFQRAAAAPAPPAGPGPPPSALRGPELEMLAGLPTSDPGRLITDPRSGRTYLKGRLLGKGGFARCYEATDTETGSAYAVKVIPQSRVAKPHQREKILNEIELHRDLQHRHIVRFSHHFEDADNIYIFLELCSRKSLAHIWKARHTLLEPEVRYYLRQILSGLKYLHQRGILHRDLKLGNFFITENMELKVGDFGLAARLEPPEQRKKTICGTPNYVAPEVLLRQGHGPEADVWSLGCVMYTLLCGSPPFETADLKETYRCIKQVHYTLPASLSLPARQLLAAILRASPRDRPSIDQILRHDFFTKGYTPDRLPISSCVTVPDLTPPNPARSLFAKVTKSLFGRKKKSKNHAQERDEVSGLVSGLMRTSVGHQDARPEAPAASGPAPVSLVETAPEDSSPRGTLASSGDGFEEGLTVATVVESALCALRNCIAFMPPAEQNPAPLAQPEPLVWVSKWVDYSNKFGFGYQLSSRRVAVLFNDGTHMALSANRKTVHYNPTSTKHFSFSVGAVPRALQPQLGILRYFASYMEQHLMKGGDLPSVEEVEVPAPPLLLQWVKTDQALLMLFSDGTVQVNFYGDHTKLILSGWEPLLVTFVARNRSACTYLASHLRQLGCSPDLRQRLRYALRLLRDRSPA

[8] = biological target: Calcium/calmodulin-dependent protein kinase kinase 2 (Homo sapiens) (UniProt Q96RR4); assay: Inhibition of human CaMKK2 assessed as residual activity at 10 uM by kinome selectivity profiling analysis relative to control
Sequence of Calcium/calmodulin-dependent protein kinase kinase 2 (Homo sapiens) (Q96RR4 2-588 limits assumed): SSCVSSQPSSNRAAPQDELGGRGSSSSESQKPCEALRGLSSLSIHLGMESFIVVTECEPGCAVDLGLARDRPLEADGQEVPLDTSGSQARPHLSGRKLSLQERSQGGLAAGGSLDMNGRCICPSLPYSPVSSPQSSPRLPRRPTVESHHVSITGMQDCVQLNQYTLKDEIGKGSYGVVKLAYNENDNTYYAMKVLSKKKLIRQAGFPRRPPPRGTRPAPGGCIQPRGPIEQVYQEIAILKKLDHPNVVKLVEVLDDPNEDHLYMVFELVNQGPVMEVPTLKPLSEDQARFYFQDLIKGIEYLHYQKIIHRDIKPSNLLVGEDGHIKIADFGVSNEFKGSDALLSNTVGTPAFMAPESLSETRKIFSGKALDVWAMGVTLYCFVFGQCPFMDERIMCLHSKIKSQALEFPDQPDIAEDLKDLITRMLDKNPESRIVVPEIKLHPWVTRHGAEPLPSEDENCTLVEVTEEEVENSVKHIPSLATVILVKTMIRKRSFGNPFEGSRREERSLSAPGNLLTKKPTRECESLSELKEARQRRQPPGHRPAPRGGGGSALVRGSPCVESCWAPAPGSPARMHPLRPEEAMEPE

[9] = biological target: Glycogen synthase kinase-3 beta (Homo sapiens) (UniProt P49841); assay: Inhibition of human GSK-3beta assessed as residual activity at 10 uM by kinome selectivity profiling analysis relative to control
[10] = biological target: T1, Serine/threonine-protein kinase PLK3; assay: Inhibition of human PLK3 assessed as residual activity at 10 uM by kinome selectivity profiling analysis relative to control
Target sequence in this assay (Q9H4B4 whole entry, looked up): as the sequence (Q9H4B4 whole entry) above

[11] = Stability of compound in human hepatocytes; type: ADME, cell-based, Hepatocyte
[12] = test system: A549; assay: cells; conditions: Homo sapiens
[13] = biological target: cGMP-dependent protein kinase 2 (Homo sapiens) (UniProt Q13237); assay: Inhibition of human PRKG2 assessed as residual activity at 10 uM by kinome selectivity profiling analysis relative to control
[14] = Metabolic stability in human liver microsomes assessed as intrinsic clearance in microsome measured per mg protein preincubated for 5 mins followed by NADPH addition by LC-MS/MS analysis; type: ADME; conditions: read-out: CLH
[15] = Half life in C57BL/6 mouse at 10 mg/kg, po measured for 0.5 to 12 htr by LC-MS/MS analysis; type: ADME, organism-based; conditions: in vivo, time 0.5-12 hrs
[16] = Metabolic stability in human liver microsomes assessed as half life preincubated for 5 mins followed by NADPH addition by LC-MS/MS analysis; type: ADME, Microsome
[17] = biological target: T2, Serine/threonine-protein kinase PLK1 (Homo sapiens, UniProt P53350); assay: Inhibition of human PLK1 at 10 uM by kinome selectivity profiling analysis relative to control
T2 sequence (P53350 whole entry): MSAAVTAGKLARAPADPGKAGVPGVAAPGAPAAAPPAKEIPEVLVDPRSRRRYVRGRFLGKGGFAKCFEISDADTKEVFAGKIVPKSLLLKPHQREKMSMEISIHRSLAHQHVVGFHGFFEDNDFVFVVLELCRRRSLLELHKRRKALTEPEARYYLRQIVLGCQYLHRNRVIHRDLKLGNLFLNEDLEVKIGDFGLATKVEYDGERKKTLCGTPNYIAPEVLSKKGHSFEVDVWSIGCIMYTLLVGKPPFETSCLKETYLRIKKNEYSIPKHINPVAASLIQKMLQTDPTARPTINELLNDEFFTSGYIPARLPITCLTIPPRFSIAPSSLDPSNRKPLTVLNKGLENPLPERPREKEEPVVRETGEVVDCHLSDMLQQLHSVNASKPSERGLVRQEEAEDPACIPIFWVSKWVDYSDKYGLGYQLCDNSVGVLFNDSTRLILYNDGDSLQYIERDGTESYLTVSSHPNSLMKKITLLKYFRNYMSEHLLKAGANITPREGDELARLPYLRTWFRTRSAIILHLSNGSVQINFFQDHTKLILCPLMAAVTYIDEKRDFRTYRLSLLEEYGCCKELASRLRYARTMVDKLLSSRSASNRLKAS

[18] = AUC (0 to t) in C57BL/6 mouse at 1 mg/kg, iv measured for 0.5 to […] htr by LC-MS/MS analysis; type: ADME, organism-based; conditions: in vivo, time 0.5-12 hrs
[19] = Solubility of compound in 0.01 M PBS at pH 7.4 assessed as fold increase equilibrated for 12 hrs by UV spectrophotometry relative to BI 2536; type: physicochemical; conditions: buffer, pH 7.4, 12 h
[20] = biological target: T2, Serine/threonine-protein kinase PLK1; assay: Inhibition of human PLK1 assessed as residual activity at 10 uM by kinome selectivity profiling analysis relative to control
[21] = Acute toxicity in mouse assessed as damage in spleen at 500 mg/kg, IG qd treated for 7 days by H and E staining based analysis; type: organism-based; conditions: in vivo, po, 168 h, time 7 day
[22] = biological target: Cytochrome P450 2C8 (Homo sapiens, UniProt P10632); assay: Inhibition of CYP2C8 in human liver microsomes using paclitaxel as substrate preincubated with compound followed by substrate addition measured after 10 mins in presence of NADPH by LC-MS/MS analysis; type: ADME, Microsome
Sequence of Cytochrome P450 2C8 (P10632 whole entry): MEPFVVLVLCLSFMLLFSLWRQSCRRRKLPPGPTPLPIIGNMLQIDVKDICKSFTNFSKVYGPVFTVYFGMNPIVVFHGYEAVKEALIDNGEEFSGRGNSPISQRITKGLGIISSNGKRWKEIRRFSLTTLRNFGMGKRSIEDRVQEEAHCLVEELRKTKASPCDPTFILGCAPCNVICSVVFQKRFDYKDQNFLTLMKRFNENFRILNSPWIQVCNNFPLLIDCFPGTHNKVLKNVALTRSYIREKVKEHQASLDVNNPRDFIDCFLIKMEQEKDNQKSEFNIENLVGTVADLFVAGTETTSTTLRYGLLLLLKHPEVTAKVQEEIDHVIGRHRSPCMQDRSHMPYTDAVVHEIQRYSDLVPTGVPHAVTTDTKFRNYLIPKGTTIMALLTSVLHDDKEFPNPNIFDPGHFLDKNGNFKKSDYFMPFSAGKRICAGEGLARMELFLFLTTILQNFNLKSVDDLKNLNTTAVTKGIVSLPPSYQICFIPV

[23] = biological target: Eukaryotic translation initiation factor 2-alpha kinase 3 (Homo sapiens) (UniProt Q9NZJ5); assay: Inhibition of human PEK assessed as residual activity at 10 uM by kinome selectivity profiling analysis relative to control
[24] = biological target: Cytochrome P450 3A4 (Homo sapiens, UniProt P08684); assay: Inhibition of CYP3A4 in human liver microsomes using testosterone as substrate preincubated with compound followed by substrate addition measured after 10 mins in presence of NADPH by LC-MS/MS analysis; type: ADME, Microsome
Sequence of Cytochrome P450 3A4 (P08684 whole entry): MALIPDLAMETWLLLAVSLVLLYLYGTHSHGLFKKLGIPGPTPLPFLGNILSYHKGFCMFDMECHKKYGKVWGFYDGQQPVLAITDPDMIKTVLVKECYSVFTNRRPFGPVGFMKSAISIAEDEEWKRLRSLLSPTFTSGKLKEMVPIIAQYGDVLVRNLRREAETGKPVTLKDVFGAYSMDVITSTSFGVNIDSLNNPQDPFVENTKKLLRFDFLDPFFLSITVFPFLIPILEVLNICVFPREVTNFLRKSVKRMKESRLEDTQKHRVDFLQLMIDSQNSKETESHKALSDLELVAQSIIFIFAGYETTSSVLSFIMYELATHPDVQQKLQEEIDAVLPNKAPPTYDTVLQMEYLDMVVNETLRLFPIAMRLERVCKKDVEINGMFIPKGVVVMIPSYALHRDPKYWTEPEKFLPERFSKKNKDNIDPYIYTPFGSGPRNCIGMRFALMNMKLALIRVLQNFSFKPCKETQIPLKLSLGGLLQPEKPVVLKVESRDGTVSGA

[25] = Metabolic stability in dog liver microsomes assessed as half life preincubated for 5 mins followed by NADPH addition by LC-MS/MS analysis; type: ADME, Canis lupus familiaris, Microsome
[26] = Metabolic stability in mouse liver microsomes assessed as intrinsic clearance preincubated for 5 mins followed by NADPH addition by LC-MS/MS analysis; type: ADME, Microsome; conditions: read-out: CLH
[27] = Acute hematopoietic toxicity in mouse assessed as effect on red blood cells at 500 mg/kg, IG qd treated for 7 days; type: organism-based; conditions: in vivo, po, 168 h, time 7 day
[28] = test system: K562; assay: Antitumor activity against human K562 cells xenografted in BALB/c mouse assessed as suppression of tumor growth administered intragastrically for 11 days treated on every 3 to 4 days; type: functional, cell-based; conditions: dose 10-20 mg/kg, route ig, time 11.0 day
[29] = Acute toxicity in mouse assessed as body weight change at 500 mg/kg, IG qd treated for 7 days; type: organism-based; conditions: in vivo, po, 168 h, time 7 day
[30] = Volume of distribution at steady state in C57BL/6 mouse at 1 mg/kg, iv measured for 0.5 to 12 htr by LC-MS/MS analysis; type: ADME, organism-based; conditions: in vivo, time 0.5-12 hrs, read-out: Vdss
[31] = Acute toxicity in mouse assessed as damage in liver at 500 mg/kg, IG qd treated for 7 days by H and E staining based analysis; type: organism-based; conditions: in vivo, po, 168 h, time 7 day
[32] = Metabolic stability in mouse liver microsomes assessed as half life preincubated for 5 mins followed by NADPH addition by LC-MS/MS analysis; type: ADME, Microsome
[33] = test system: K562; assay: cells; conditions: Homo sapiens
[34] = biological target: Aurora kinase A (Homo sapiens) (UniProt O14965); assay: Inhibition of human Aurora-A assessed as residual activity at 10 uM by kinome selectivity profiling analysis relative to control
[35] = C0 in C57BL/6 mouse at 1 mg/kg, iv measured for 0.5 to 12 htr by LC-MS/MS analysis; type: ADME, organism-based; conditions: in vivo, time 0.5-12 hrs
[36] = biological target: Serine/threonine-protein kinase MRCK alpha (Homo sapiens) (UniProt Q5VT25); assay: Inhibition of human MRCK-alpha assessed as residual activity at 10 uM by kinome selectivity profiling analysis relative to control
[37] = biological target: T2, Serine/threonine-protein kinase PLK1; assay: Inhibition of human PLK1 using ATF2 as substrate incubated for 40 mins in presence of [gamma-33P]ATP/Mg acetate by scintillation counting analysis
[38] = biological target: Cytochrome P450 1A2 (Homo sapiens, UniProt P05177); assay: Inhibition of CYP1A2 in human liver microsomes using phenacetin as substrate preincubated with compound followed by substrate addition measured after 10 mins in presence of NADPH by LC-MS/MS analysis; type: ADME, Microsome
Sequence of Cytochrome P450 1A2 (P05177 whole entry): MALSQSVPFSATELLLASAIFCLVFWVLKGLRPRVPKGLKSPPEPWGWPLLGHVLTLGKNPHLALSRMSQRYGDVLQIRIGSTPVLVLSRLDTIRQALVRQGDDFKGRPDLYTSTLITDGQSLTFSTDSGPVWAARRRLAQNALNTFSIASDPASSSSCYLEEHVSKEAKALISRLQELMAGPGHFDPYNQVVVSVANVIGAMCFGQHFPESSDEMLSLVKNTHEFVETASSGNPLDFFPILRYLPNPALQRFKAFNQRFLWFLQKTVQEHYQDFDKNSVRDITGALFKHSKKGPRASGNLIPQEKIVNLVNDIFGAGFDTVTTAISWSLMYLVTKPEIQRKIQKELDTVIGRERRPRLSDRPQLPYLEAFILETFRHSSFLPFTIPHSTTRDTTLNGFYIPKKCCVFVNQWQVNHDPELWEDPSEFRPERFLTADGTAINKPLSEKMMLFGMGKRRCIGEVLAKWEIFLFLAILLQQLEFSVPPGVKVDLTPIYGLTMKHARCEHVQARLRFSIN

[39] = Stability of compound in rat hepatocytes; type: ADME, cell-based, Hepatocyte

CC[C@@H]1C(=O)N(C)c2cnc(Nc3cc(N4CCN(C)CC4)cc(Cl)c3OCCCO)nc2N1C1CCCC1
IC50 [1]: > 10 µM
microsomal CLint [2]: 190 µL/min/mg
IC50 [3]: > 10 µM
Activity [4]: Non-toxic
Activity [5]: 77%
Activity [6]: 108%
IC50 [7]: 3.95 µM
Activity [8]: 73%
Activity [9]: 112%
Activity [10]: 11%
Stability [11]: Stable
IC50 [12]: 0.032 µM
Activity [13]: 110%
microsomal CLint [14]: 68.3 µL/min/mg
half-life [15]: 72 min
half-life [16]: 30.3 min
inhibition [17]: 100%
AUC(0-t) [18]: 0.181 µg·h/mL
fold change (FC) [19]: > 2
Activity [20]: -2%
Activity [21]: Non-toxic
IC50 [22]: > 10 µM
Activity [23]: 80%
IC50 [24]: > 10 µM
half-life [25]: 17.3 min
CLint scaled [26]: 49.7 L/h/kg
Activity [27]: Non-toxic
Activity [28]: Dose-dependent-effect; Demonstrated Comparable Or Remarkably Improved Therapeutic Efficacy Compared To Bi 2536 At 10 Mg/Kg (I.P.)
Activity [29]: Non-toxic
Vd [30]: 3.6 L/kg
Activity [31]: Non-toxic
half-life [32]: 16.6 min
IC50 [33]: 0.08 nM
Activity [34]: 110%
C0 [35]: 0.328 µg/mL
Activity [36]: 129%
IC50 [37]: 0.02 µM
IC50 [38]: > 10 µM
Stability [39]: Stable
